Results reported in paper PMC10889688 (2024).

Tests used:
[1] = test system: rArU (AU homopolynucleotide) (RNA, polymer) A/U; assay: UV thermal melting at 260 nm; conditions: Na+ (sodium cacodylate, I = 0.05 mol dm^-3); sodium cacodylate buffer pH 7.0; r = [compound]/[polynucleotide] = 0.1; per base
[2] = test system: rArU (AU homopolynucleotide) (RNA, polymer) A/U; assay: fluorescence titration, Scatchard equation; conditions: Na+ (sodium cacodylate, I = 0.05 mol dm^-3); sodium cacodylate buffer pH 7.0, 25 °C; RNA concentration as phosphates; per base

SMILES	ΔTm [1] [°C]	logKa [2]
CN(C)CCCNc1ccc2cc3cc(C#N)c4nc5ccccc5n4c3nc2c1	1.1 ± 0.5	8.6
N#Cc1cc2cc3ccc(N4CCNCC4)cc3nc2n2c1nc1ccccc12	4.9 ± 0.5	7.9
